{
  "source": "ChEMBL document CHEMBL4507281",
  "about": "“Data for DCP probe BI-4394” (2021)",
  "details_in_all_cases": "Compound concentration 10.0 uM",
  "key": {"[1]": {"molecular_target": "Cyclin-dependent kinase 2/cyclin A (Homo sapiens) (UniProt P24941+P20248+P78396)"}, "[2]": {"molecular_target": "Dual specificity mitogen-activated protein kinase kinase 1 (Homo sapiens) (UniProt Q02750)"}, "[3]": {"molecular_target": "Alpha-1A adrenergic receptor (Homo sapiens) (UniProt P35348)", "sequence (P35348 whole entry)": "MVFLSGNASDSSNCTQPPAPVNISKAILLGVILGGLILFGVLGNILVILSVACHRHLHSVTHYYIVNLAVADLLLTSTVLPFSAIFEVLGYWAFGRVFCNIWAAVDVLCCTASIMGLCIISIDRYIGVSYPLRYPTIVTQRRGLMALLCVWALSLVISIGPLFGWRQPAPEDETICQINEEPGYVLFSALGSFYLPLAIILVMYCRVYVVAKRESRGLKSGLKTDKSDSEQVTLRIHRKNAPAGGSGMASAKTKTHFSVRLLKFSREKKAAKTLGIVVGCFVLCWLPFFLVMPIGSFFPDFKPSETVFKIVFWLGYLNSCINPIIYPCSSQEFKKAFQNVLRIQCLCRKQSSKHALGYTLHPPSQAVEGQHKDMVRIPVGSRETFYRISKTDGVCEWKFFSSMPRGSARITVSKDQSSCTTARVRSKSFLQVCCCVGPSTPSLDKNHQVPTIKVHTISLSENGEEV"}, "[4]": {"molecular_target": "T1, Activin receptor type-1B (Homo sapiens) (UniProt P36896)", "T1 sequence (whole entry)": "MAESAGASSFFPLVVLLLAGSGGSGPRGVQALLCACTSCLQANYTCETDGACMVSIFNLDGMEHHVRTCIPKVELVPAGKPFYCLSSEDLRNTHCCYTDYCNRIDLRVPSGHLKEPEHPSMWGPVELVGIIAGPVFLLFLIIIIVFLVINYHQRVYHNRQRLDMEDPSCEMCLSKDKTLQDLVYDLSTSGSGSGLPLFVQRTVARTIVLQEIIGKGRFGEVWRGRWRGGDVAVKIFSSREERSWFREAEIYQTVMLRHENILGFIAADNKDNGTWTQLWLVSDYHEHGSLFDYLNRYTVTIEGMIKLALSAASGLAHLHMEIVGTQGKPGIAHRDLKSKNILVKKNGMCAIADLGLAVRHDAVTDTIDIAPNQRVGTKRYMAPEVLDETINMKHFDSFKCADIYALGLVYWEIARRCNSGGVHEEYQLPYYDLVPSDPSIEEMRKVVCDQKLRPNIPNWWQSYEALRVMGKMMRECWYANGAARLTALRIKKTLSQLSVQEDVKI"}, "[5]": {"molecular_target": "Casein kinase I isoform gamma-2 (Homo sapiens) (UniProt P78368)", "sequence (P78368 whole entry, looked up, canonical isoform)": "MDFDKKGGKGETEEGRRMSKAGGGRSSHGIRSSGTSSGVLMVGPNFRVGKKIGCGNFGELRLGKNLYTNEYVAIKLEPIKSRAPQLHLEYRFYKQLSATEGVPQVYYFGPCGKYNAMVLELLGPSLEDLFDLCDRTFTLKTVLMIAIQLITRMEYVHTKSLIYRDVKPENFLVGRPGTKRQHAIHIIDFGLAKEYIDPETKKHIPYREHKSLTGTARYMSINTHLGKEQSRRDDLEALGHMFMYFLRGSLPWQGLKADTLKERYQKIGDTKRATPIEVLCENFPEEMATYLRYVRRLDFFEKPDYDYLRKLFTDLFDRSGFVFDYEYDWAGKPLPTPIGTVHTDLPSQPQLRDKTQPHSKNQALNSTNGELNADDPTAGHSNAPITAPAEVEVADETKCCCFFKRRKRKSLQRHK"}, "[6]": {"molecular_target": "Angiopoietin-1 receptor (Homo sapiens) (UniProt Q02763)", "sequence (Q02763 whole entry)": "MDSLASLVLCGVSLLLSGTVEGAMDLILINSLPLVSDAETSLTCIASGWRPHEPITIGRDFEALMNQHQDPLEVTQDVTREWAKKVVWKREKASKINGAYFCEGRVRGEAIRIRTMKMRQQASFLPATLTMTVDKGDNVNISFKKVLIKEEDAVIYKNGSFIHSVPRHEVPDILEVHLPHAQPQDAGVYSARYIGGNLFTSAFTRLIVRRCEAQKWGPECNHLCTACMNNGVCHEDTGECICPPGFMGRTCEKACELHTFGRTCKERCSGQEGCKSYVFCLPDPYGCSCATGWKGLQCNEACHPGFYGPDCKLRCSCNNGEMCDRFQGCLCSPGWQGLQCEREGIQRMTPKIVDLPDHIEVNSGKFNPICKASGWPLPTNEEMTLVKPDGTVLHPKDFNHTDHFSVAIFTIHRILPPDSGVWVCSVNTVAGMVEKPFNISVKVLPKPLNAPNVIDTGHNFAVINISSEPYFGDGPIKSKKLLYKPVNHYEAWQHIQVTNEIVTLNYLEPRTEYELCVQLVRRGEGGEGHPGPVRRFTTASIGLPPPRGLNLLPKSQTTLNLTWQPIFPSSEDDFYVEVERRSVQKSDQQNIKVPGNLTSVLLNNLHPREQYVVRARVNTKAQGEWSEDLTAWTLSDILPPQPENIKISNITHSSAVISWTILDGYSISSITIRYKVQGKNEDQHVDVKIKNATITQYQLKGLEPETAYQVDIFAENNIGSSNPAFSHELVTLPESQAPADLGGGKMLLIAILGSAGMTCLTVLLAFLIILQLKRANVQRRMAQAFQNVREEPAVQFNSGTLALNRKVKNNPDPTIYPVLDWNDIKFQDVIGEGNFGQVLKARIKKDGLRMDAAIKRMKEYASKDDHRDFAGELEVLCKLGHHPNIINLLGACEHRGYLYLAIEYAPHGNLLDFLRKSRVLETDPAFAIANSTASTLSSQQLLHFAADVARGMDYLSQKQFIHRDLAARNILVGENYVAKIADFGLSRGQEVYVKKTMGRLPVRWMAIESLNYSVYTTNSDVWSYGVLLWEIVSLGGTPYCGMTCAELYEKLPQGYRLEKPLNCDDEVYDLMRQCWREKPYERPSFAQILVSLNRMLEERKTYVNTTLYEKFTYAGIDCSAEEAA"}, "[7]": {"molecular_target": "Serine/threonine-protein kinase PLK1 (Homo sapiens) (UniProt P53350)"}, "[8]": {"molecular_target": "MAP kinase-activated protein kinase 2 (Homo sapiens) (UniProt P49137)"}, "[9]": {"molecular_target": "Mitogen-activated protein kinase kinase kinase kinase 4 (Homo sapiens) (UniProt O95819)"}, "[10]": {"molecular_target": "Glycogen synthase kinase-3 beta (Homo sapiens) (UniProt P49841)", "sequence (P49841 whole entry, looked up)": "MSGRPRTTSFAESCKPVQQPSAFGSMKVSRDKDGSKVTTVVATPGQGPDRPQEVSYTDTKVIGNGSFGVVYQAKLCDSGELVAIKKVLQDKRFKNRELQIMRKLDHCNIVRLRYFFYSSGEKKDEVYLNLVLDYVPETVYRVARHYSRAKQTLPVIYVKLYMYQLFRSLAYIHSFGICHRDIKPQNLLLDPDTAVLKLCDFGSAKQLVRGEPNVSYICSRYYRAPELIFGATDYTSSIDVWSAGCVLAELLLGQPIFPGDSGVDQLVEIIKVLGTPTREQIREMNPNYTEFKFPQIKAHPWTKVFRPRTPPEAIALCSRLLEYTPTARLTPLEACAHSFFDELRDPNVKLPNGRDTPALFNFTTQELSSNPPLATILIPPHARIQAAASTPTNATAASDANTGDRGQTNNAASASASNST"}, "[11]": {"molecular_target": "Epidermal growth factor receptor (Homo sapiens) (UniProt P00533)"}, "[12]": {"molecular_target": "Serine/threonine-protein kinase pim-1 (Homo sapiens) (UniProt P11309)", "sequence (P11309 whole entry, looked up)": "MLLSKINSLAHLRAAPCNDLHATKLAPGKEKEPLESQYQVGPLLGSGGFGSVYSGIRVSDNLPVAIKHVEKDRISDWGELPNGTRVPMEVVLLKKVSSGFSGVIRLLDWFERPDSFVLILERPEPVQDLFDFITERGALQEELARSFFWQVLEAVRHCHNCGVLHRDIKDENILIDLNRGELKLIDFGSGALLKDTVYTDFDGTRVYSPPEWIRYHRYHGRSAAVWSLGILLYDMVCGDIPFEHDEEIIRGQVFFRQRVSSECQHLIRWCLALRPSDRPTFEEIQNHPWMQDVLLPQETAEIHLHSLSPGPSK"}, "[13]": {"molecular_target": "T2, Inhibitor of nuclear factor kappa-B kinase subunit beta (Homo sapiens) (UniProt O14920)", "T2 sequence (whole entry)": "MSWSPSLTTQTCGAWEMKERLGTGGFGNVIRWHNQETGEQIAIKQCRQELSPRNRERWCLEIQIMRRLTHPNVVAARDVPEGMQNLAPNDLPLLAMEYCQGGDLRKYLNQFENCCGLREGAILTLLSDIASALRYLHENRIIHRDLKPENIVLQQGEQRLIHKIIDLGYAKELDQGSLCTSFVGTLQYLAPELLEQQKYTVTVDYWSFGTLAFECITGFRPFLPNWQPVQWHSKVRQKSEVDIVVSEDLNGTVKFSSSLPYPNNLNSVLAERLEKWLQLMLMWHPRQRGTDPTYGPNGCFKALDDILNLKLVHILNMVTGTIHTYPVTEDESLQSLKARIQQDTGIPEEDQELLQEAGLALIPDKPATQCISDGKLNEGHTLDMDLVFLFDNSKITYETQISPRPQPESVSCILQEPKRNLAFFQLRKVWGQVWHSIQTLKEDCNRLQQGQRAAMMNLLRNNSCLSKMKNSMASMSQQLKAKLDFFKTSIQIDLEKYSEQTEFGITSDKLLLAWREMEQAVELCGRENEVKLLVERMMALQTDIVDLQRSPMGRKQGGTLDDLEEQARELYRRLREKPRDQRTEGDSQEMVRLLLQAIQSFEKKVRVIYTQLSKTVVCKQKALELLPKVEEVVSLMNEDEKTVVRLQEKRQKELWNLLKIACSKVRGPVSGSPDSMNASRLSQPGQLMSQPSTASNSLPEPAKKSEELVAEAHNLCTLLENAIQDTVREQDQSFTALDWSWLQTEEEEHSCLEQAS"}, "[14]": {"molecular_target": "RAC-alpha serine/threonine-protein kinase (Homo sapiens) (UniProt P31749)"}, "[15]": {"molecular_target": "Platelet-derived growth factor receptor beta (Homo sapiens) (UniProt P09619)"}, "[16]": {"molecular_target": "Receptor tyrosine-protein kinase erbB-2 (Homo sapiens) (UniProt P04626)"}, "[17]": {"molecular_target": "Proto-oncogene tyrosine-protein kinase Src (Homo sapiens) (UniProt P12931)"}, "[18]": {"molecular_target": "Beta-1 adrenergic receptor (Homo sapiens) (UniProt P08588)"}, "[19]": {"molecular_target": "Mast/stem cell growth factor receptor Kit (Homo sapiens) (UniProt P10721)", "sequence (P10721 whole entry)": "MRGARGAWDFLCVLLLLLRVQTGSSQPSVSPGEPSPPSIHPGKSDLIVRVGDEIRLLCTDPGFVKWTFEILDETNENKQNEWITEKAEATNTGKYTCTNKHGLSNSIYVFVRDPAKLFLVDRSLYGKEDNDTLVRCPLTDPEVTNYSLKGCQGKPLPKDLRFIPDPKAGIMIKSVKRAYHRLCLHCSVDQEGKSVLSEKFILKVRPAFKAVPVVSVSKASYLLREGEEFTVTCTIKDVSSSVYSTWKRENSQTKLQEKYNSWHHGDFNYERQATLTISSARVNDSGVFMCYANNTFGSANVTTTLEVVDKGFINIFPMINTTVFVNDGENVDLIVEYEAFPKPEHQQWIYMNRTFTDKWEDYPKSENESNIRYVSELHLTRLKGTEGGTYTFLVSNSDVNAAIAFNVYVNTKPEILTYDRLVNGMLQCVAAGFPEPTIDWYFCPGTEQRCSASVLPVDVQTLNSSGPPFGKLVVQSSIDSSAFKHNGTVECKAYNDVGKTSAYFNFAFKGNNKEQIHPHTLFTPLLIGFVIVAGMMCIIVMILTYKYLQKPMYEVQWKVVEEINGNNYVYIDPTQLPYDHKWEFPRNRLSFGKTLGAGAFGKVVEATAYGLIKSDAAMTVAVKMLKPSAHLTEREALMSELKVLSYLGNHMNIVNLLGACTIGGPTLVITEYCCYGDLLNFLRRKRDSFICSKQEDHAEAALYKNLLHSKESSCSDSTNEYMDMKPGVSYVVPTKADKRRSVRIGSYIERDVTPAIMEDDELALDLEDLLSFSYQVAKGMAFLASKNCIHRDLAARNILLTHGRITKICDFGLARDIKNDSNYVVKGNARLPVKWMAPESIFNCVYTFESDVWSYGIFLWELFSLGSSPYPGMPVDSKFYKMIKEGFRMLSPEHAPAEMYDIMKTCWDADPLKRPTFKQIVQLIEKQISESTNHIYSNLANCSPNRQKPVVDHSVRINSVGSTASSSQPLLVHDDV"}, "[20]": {"molecular_target": "cAMP-dependent protein kinase catalytic subunit alpha (Homo sapiens) (UniProt P17612)"}, "[21]": {"molecular_target": "Vascular endothelial growth factor receptor 2 (Homo sapiens) (UniProt P35968)"}, "[22]": {"molecular_target": "Ephrin type-A receptor 2 (Homo sapiens) (UniProt P29317)"}, "[23]": {"molecular_target": "Insulin-like growth factor 1 receptor (Homo sapiens) (UniProt P08069)", "sequence (P08069 31-736 limits assumed)": "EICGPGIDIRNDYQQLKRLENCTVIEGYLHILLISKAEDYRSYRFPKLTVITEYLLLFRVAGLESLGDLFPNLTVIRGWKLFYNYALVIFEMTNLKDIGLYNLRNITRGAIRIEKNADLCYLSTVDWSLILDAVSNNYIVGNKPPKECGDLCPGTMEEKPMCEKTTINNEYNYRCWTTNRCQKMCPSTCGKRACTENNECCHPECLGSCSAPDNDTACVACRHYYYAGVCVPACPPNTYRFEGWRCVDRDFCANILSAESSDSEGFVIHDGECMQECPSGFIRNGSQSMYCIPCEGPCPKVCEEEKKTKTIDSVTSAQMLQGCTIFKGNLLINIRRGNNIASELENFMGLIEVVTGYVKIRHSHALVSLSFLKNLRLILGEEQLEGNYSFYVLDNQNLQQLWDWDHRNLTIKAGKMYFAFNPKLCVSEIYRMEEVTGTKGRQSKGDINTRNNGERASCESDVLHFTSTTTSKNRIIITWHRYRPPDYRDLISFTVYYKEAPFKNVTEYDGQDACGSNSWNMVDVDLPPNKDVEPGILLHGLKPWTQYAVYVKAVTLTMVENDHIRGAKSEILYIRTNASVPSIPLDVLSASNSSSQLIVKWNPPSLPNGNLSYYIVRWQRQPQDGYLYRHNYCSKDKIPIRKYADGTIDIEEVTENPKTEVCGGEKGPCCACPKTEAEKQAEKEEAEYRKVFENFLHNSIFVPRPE", "sequence (P08069 741-1367 limits assumed)": "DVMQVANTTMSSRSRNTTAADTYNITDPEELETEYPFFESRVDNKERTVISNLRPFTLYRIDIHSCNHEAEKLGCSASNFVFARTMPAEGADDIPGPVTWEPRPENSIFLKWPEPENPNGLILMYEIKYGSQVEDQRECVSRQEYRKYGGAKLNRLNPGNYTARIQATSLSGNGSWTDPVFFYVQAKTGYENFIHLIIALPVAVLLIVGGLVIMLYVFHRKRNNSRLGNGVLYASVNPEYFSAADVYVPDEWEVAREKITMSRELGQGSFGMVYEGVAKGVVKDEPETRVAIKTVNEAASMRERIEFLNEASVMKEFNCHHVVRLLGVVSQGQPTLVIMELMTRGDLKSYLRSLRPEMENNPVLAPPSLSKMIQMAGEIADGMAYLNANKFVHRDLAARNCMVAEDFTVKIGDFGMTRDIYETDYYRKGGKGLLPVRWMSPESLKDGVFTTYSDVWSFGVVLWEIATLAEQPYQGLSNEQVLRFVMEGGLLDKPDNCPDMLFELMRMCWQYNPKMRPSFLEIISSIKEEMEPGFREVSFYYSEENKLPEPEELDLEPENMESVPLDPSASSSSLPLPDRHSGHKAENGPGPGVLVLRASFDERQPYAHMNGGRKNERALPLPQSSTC"}, "[24]": {"molecular_target": "Sodium-dependent dopamine transporter (Homo sapiens) (UniProt Q01959)"}, "[25]": {"molecular_target": "PI3-kinase p110-alpha/p85-alpha (Homo sapiens) (UniProt P27986+P42336)"}, "[26]": {"molecular_target": "Tyrosine-protein kinase BTK (Homo sapiens) (UniProt Q06187)"}},
  "data": [
    {"molecule": "CCOC(=O)c1cc2cc(-c3cc(C(=O)NCc4ccc(C(=O)O)cc4)nn3C)ccc2[nH]1", "note": "[BI 4394]", "values": [
      {"measurement": "residual activity", "setting": "[1]", "result": 93, "unit": "%"},
      {"measurement": "residual activity", "setting": "[2]", "result": 78, "unit": "%"},
      {"measurement": "inhibition", "setting": "[3]", "result": -6.15, "unit": "%"},
      {"measurement": "residual activity", "setting": "[4]", "result": 100, "unit": "%"},
      {"measurement": "residual activity", "setting": "[5]", "result": 61, "unit": "%"},
      {"measurement": "residual activity", "setting": "[6]", "result": 85, "unit": "%"},
      {"measurement": "residual activity", "setting": "[7]", "result": 73, "unit": "%"},
      {"measurement": "residual activity", "setting": "[8]", "result": 1, "unit": "%"},
      {"measurement": "residual activity", "setting": "[9]", "result": 32, "unit": "%"},
      {"measurement": "residual activity", "setting": "[10]", "result": 6, "unit": "%"},
      {"measurement": "residual activity", "setting": "[11]", "result": 99, "unit": "%"},
      {"measurement": "residual activity", "setting": "[12]", "result": 14, "unit": "%"},
      {"measurement": "residual activity", "setting": "[13]", "result": 48, "unit": "%"},
      {"measurement": "residual activity", "setting": "[14]", "result": 24, "unit": "%"},
      {"measurement": "residual activity", "setting": "[15]", "result": 96, "unit": "%"},
      {"measurement": "residual activity", "setting": "[16]", "result": 87, "unit": "%"},
      {"measurement": "residual activity", "setting": "[17]", "result": 25, "unit": "%"},
      {"measurement": "inhibition", "setting": "[18]", "result": -5.04, "unit": "%"},
      {"measurement": "residual activity", "setting": "[19]", "result": 77, "unit": "%"},
      {"measurement": "residual activity", "setting": "[20]", "result": 10, "unit": "%"},
      {"measurement": "residual activity", "setting": "[21]", "result": 17, "unit": "%"},
      {"measurement": "residual activity", "setting": "[22]", "result": 85, "unit": "%"},
      {"measurement": "residual activity", "setting": "[23]", "result": 88, "unit": "%"},
      {"measurement": "inhibition", "setting": "[24]", "result": 2.26, "unit": "%"},
      {"measurement": "residual activity", "setting": "[25]", "result": 133, "unit": "%"},
      {"measurement": "residual activity", "setting": "[26]", "result": 68, "unit": "%"}
    ]}
  ]
}
